# Key:
# Assay in all cases: Bliss excess, mean over the matrix (fraction); higher = more synergy
# [1] = test system: OVCAR-8 (Ovarian Carcinoma)
# Outline: (§1)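 After 24 hours at 37°C and 5% CO2 in 1536-well plates, cells in DMEM/F12 or RPMI plus 10% FBS received two-drug dose matrices for 72 hours. Viability came from CellTiter-Glo 2.0 luminescence and was scaled as inhibition, anchored at 0 by vehicle wells and at 1 by blank wells. Combination Emax is taken as the second-highest inhibition in the matrix, and Bliss excess as the observed combination effect less EA + EB − EA·EB, with EA and EB the single-agent effects.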
# [2] = test system: KARPAS-231 (B-Cell Non-Hodgkin's Lymphoma)
# Outline: as §1
# [3] = test system: TE-4 (Esophageal Squamous Cell Carcinoma)
# Outline: as §1
# [4] = test system: CTB-1 (B-Cell Non-Hodgkin's Lymphoma)
# Outline: as §1
# [5] = test system: KYSE-410 (Esophageal Squamous Cell Carcinoma)
# Outline: as §1
# [6] = test system: MHH-PREB-1 (B-Cell Non-Hodgkin's Lymphoma)
# Outline: as §1
# [7] = test system: SW626 (Colorectal Carcinoma)
# Outline: as §1
smiles,measurement,setting,value
"CN(CCO)CC[C@H](CSc1ccccc1)Nc1ccc(S(=O)(=O)NC(=O)c2ccc(N3CCC([C@@H](O)c4ccccc4-c4ccc(Cl)cc4)CC3)cc2)cc1S(=O)(=O)C(F)(F)F [AZD4320] + C[C@@H](Nc1cc(F)cc(F)c1)c1cc(C(=O)N(C)C)cc2c(=O)cc(N3CCOCC3)oc12 [AZD8186] (first compound max 1 µM, 7x7, partner max 3 µM)",Bliss excess,[1],0.0245
same,Bliss excess,[2],0.0269
same,Bliss excess,[3],0.0296
same,Bliss excess,[4],0.0266
same,Bliss excess,[5],0.0209
same,Bliss excess,[6],0.0355
same,Bliss excess,[7],-0.0203

# From the supplement of paper PMC11061612
